22 molecules from patent US20150087673A1, “METHODS FOR USING AND BIOMARKERS FOR AMPK-ACTIVATING COMPOUNDS” (RIGEL PHARMACEUTICALS, INC., priority 2013, published 2015) can be followed below.

The assay relates to AMPK. In words: AMPK activation assay (enzyme-linked immunosorbent assay). Format: cell-based. In a few lines: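 Compounds were tested for their capacity to activate the kinase using standard, commercially available kit reagents and procedures.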

For `COc1ccc(C(=O)C2CCN(C(=O)c3ccc(C(=O)N[C@H]4CC[C@@H](Oc5ccc(C#N)cc5)CC4)nc3)CC2)cc1` [Compound 171, N-((cis)-4-(4-cyanophenoxy)cyclohexyl)-5-(4-(4-methoxybenzoyl)piperidine-1-carbonyl)picolinamide], the EC50 – broadly, the concentration at which the effect is half-maximal – was below 500 nM.
With `O=C(NC1CCN(Cc2ccc(OC(F)(F)F)cc2)CC1)c1ccc(C(=O)N2CCC(Oc3cccc(NC(=O)C4CC4)c3)CC2)nc1` [Compound 438, 6-(4-(3-(cyclopropanecarboxamido)phenoxy)piperidine-1-carbonyl)-N-(1-(4-(trifluoromethoxy)benzyl)piperidin-4-yl)nicotinamide] the figure was below 500 nM.
The value for `N#Cc1ccc(CN2CCC(NC(=O)c3ccc(C(=O)N4CC(OCc5ccc(F)cc5)C4)cn3)CC2)cc1` [Compound 307, N-(1-(4-cyanobenzyl)piperidin-4-yl)-5-(3-(4-fluorobenzyloxy)azetidine-1-carbonyl)picolinamide] was 500 to 1000 nM; that for `CS(=O)(=O)c1ccc(OC2CCN(C(=O)c3cnc(C(=O)NC4CCN(Cc5ccc(C#N)cc5)CC4)cn3)CC2)cc1` [Compound 218, N-(1-(4-cyanobenzyl)piperidin-4-yl)-5-(4-(4-(methylsulfonyl)phenoxy)piperidine-1-carbonyl)pyrazine-2-carboxamide] was below 500 nM.
With `O=C(N[C@H]1CC[C@@H](Oc2ccc(F)cc2)CC1)c1ccc(C(=O)N2CCC(Oc3ccc(F)cc3)CC2)cn1` [Compound 312, N-((cis)-4-(4-fluorophenoxy)cyclohexyl)-5-(4-(4-fluorophenoxy)piperidine-1-carbonyl)picolinamide] the figure was below 500 nM; with `N#Cc1ccc(CN2CCC(NC(=O)c3ccc(C(=O)N4CCC(Oc5ccc(C(F)(F)F)cc5)CC4)cn3)CC2)cc1` [Compound 157, N-(1-(4-cyanobenzyl)piperidin-4-yl)-5-(4-(4-(trifluoromethyl)phenoxy)piperidine-1-carbonyl)picolinamide], below 500 nM.
Turning to `CN(C)C(=O)c1ccc(OC2CCN(C(=O)c3ccc(C(=O)Nc4ccc(Oc5ccc(F)cc5)nc4)nc3)CC2)cc1` [Compound 360, 5-(4-(4-(dimethylcarbamoyl)phenoxy)piperidine-1-carbonyl)-N-(6-(4-fluorophenoxy)pyridin-3-yl)picolinamide], the 50% effective concentration (EC50) was below 500 nM.
The value for `O=C(Nc1ccc(Oc2ccc(F)cc2)nc1)c1ccc(C(=O)N2CCC(C(=O)c3ccc(F)c(F)c3)CC2)cn1` [Compound 330, 5-(4-(3,4-difluorobenzoyl)piperidine-1-carbonyl)-N-(6-(4-fluorophenoxy)pyridin-3-yl)picolinamide] was 500 to 1000 nM; that for `N#Cc1ccc(CN2CCC(NC(=O)c3ccc(C(=O)Nc4cnn(Cc5ccc(C#N)cc5)c4)cn3)CC2)cc1` [Compound 43, N^5-(1-(4-cyanobenzyl)-1H-pyrazol-4-yl)-N^2-(1-(4-cyanobenzyl)piperidin-4-yl)pyridine-2,5-dicarboxamide] was 1000 to 5000 nM.
With `COc1ccc(CC2CCN(C(=O)c3ccc(C(=O)NC4CCN(Cc5ccc(C#N)cc5)CC4)nc3)CC2)cc1F` [Compound 146, N-(1-(4-cyanobenzyl)piperidin-4-yl)-5-(4-(3-fluoro-4-methoxybenzyl)piperidine-1-carbonyl)picolinamide], the half-maximal effective concentration (EC50) is below 500 nM.
The value for `N#Cc1ccc(CN2CCC(NC(=O)c3ccc(N4CCN(Cc5ccc(F)cc5)CC4)nn3)CC2)cc1` [Compound 491, N-(1-(4-cyanobenzyl)piperidin-4-yl)-6-(4-(4-fluorobenzyl)piperazin-1-yl)pyridazine-3-carboxamide] was 1000 to 5000 nM.
With `COc1ccc(CN2CCC(NC(=O)c3ccc(C(=O)N4CCC(Oc5ccc(F)cc5F)CC4)nc3)CC2)cc1` [Compound 344, 6-(4-(2,4-difluorophenoxy)piperidine-1-carbonyl)-N-(1-(4-methoxybenzyl)piperidin-4-yl)nicotinamide] the figure was below 500 nM; with `COc1ccc(O[C@H]2CC[C@@H](NC(=O)c3ccc(C(=O)N4CCC(Oc5ccc(C(F)(F)F)cc5)CC4)cn3)CC2)cc1` [Compound 185, N-((cis)-4-(4-methoxyphenoxy)cyclohexyl)-5-(4-(4-(trifluoromethyl)phenoxy)piperidine-1-carbonyl)picolinamide], below 500 nM; with `COc1ccc(OC2CCCN(C(=O)c3ccc(C(=O)NC4CCN(Cc5ccc(C#N)cc5)CC4)nc3)C2)cc1` (stereo not shown) [Compound 274, N-(1-(4-cyanobenzyl)piperidin-4-yl)-5-(3-(4-methoxyphenoxy)piperidine-1-carbonyl)picolinamide], above 10000 nM.
Take `O=C(NC1CCN(Cc2ccc(OC(F)(F)F)cc2)CC1)c1ccc(C(=O)N2CCC(Oc3ccc(S(=O)(=O)C4CC4)cc3)CC2)nc1` [Compound 249, 6-(4-(4-(cyclopropylsulfonyl)phenoxy)piperidine-1-carbonyl)-N-(1-(4-(trifluoromethoxy)benzyl)piperidin-4-yl)nicotinamide]: the EC50 is below 500 nM.
`N#Cc1ccc(CN2CCC(NC(=O)c3ccc(C(=O)N4CCC(S(=O)(=O)c5ccc(F)cc5)CC4)nc3)CC2)cc1` [Compound 471, N-(1-(4-cyanobenzyl)piperidin-4-yl)-6-(4-(4-fluorophenylsulfonyl)piperidine-1-carbonyl)nicotinamide]: the 50% effective concentration (EC50) lay in the range of 1000 to 5000 nM.
On to `COc1ccc(C(=O)C2CCN(C(=O)c3ccc(C(=O)N[C@@H]4CCN(Cc5ccc(N6CCCC6)cc5)C[C@H]4F)cn3)CC2)cc1` (relative stereo) [Compound 352, N-((trans)-3-fluoro-1-(4-(pyrrolidin-1-yl)benzyl)piperidin-4-yl)-6-(4-(4-methoxybenzoyl)piperidine-1-carbonyl)nicotinamide], for which the EC50 is below 500 nM.
`COc1ccc(CN2CCC(NC(=O)c3ccc(C(=O)N4CCC(Oc5ccc(S(C)(=O)=O)cc5)CC4)nc3)CC2)cc1` [Compound 237, N-(1-(4-methoxybenzyl)piperidin-4-yl)-6-(4-(4-(methylsulfonyl)phenoxy)piperidine-1-carbonyl)nicotinamide] displayed an EC50 of 1000 to 5000 nM.
With `COc1ccc(C(=O)C2CCN(C(=O)c3ccc(C(=O)N[C@H]4CC[C@@H](Oc5cc(F)cc(F)c5)CC4)nc3)CC2)cc1` [Compound 300, N-((cis)-4-(3,5-difluorophenoxy)cyclohexyl)-5-(4-(4-methoxybenzoyl)piperidine-1-carbonyl)picolinamide] the figure was below 500 nM.
The value for `CC(=O)c1ccc(OC2CCN(C(=O)c3ccc(C(=O)Nc4ccc(Oc5ccc(F)cc5)nc4)nc3)CC2)cc1` [Compound 359, 5-(4-(4-acetylphenoxy)piperidine-1-carbonyl)-N-(6-(4-fluorophenoxy)pyridin-3-yl)picolinamide] was below 500 nM; that for `COc1ccc(CN2CCC(NC(=O)c3ccc(C(=O)N4CCC(C(=O)c5ccc(N6CCCC6)cc5)CC4)nc3)CC2)cc1` [Compound 439, N-(1-(4-methoxybenzyl)piperidin-4-yl)-6-(4-(4-(pyrrolidin-1-yl)benzoyl)piperidine-1-carbonyl)nicotinamide] was below 500 nM; that for `N#Cc1ccc(CN2CCC(NC(=O)c3ccc(C(=O)N4CC[C@H](Oc5ccc(F)cc5)C4)cn3)CC2)cc1` [Compound 270, (S)-N-(1-(4-cyanobenzyl)piperidin-4-yl)-5-(3-(4-fluorophenoxy)pyrrolidine-1-carbonyl)picolinamide] was below 500 nM.
